Assay results: paper PMC6992764 (Nature Communications, 2020)

Legend:
[1] = system: LLC tumor cells co-cultured with monocytes; test: Tumor cell co-culture with monocytes/macrophages; type: cell-based, mice; conditions: nano-molar concentrations of DSF
Description: Monocytes were enriched from bone marrow cells by MACS negative selection for CD3, B220, Ly-6G, NK1.1, Ter119, CD49b, and c-kit. The percentage of Ly-6C^hi Ly-6G^− monocytes were >80%. Monocytes (1 × 10^5) and 100 DsRed^+ LLC tumor cells were co-cultured for 24 h. Proliferating tumor cell clusters containing more than 10 cells were enumerated by fluorescent microscopy. For flow cytometry analysis, cultured cells were harvested with trypsin-EDTA after 3 days of culture. Cells were stained with CD45-FITC (clone 102, BioLegend), then stained with annexin V-APC in binding buffer (BD biosciences). For detection of DNA synthesis, 5-ethynyl-2´-deoxyuridine (EdU) was added to the culture in the final hour of incubation. Intracellular EdU was stained using Click-iT® EdU Alexa Fluor™ 647 flow cytometry assay kits (Thermo Fisher Scientific) according to manufacturer’s instructions. Flow cytometry data were obtained by gating CD45(−) DsRed(+) cells and analyzing annexin V-positive cells or EdU-positive cells. Dead cells were excluded by Zombie Aqua staining (BioLegend). Stained cells were measured using Flow-Count™ Fluorospheres (Beckman Coulter) for the determination of absolute counts.

FROUNT-CCR5 interaction = biological target: T1, FROUNT-CCR5 interaction (Homo sapiens, UniProt Q9BW27); test: HTRF FROUNT-CCR5 interaction assay; type: binding
T1 construct: GST-fused FROUNT (FNT-C)
T1 sequence (Q9BW27 500-656 limits assumed): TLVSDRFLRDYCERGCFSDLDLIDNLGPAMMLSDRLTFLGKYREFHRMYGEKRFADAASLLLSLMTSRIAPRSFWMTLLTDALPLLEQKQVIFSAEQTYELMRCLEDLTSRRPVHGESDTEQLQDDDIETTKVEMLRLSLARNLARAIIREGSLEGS

[2] = system: Lewis lung carcinoma (LLC); test: LLC subcutaneous tumor-growth model; type: in vivo, mice
Description: For evaluating subcutaneous tumor growth, LLC or B16 cells (5 × 10^5) in 50 μl PBS were inoculated subcutaneously into the right flanks of mice. Mice were euthanized when their tumor volumes reached 4000 mm^3. Tumor sizes were measured twice a week using calipers. Tumor volume was calculated using the following formula: Volume = (width)^2 × length/2. For the lung metastasis model, 1 × 10^6 LLC or B16 cells in 200 μl PBS were injected intravenously into mice. Mice were euthanized at day 10 after tumor injection for the LLC model and day 5–9 for the B16 model, and the lungs were isolated after perfusion with PBS via the left ventricle. Visible lung metastases were counted in the left lobe. The diameters of metastatic nodules in the lung lobe image were measured using ImageJ software. […]
Cells for flow cytometric analysis were prepared as follows: bone marrow cells were flushed from femurs, followed by incubation with ACK buffer to remove red blood cells. […] After blocking Fc receptors through incubation with an anti-mouse CD16/32 antibody (clone 2.4G2, dilution 1:100, Cat BE0307), cells were stained with fluorescence-labeled anti-mouse monoclonal antibodies. […] Flow cytometry data were obtained using a Gallios flow cytometer (Beckman Coulter) and analyzed with FlowJo software (version 10; FlowJo, LLC). […]

THP-1 cells = test: Chemotaxis inhibition assay (chemoTX chamber, CCL2); type: cell-based, human; conditions: towards CCL2, 90 min
Description: Chemotaxis was measured in a 96-well chemoTX chemotaxis chamber with a polycarbonate filter (5-μm pore size) (Neuro probe). Human CCL2 (R&D Systems) was added to the lower chamber of the plate and the cells were added to the upper chamber. After incubation at 37 °C and 5% CO2 for 90 min, the filter was removed and the number of migrated cells in the lower chamber was counted using a cell counting kit F (Dojindo). Data are expressed as migration efficiency (percentage of the maximal migration).

FROUNT-CCR2 interaction = biological target: T2, FROUNT-CCR2 interaction (Homo sapiens, UniProt Q9BW27); test: HTRF FROUNT-CCR2 interaction assay; type: binding
T2 construct: GST-fused FROUNT (FNT-C)
T2 sequence (Q9BW27 500-656 limits assumed): T1 sequence (Q9BW27 500-656 limits assumed)

inhibition of FROUNT-CCR5 interaction (FROUNT-CCR5 interaction): specifically inhibited
inhibition of FROUNT-CCR2 interaction (FROUNT-CCR2 interaction; HTRF): specifically inhibited
IC50 (FROUNT-CCR2 interaction; HTRF titration assay): 42 nM
Compound: CCN(CC)C(=S)SSC(=S)N(CC)CC [DSF, disulfiram]
tumor cell growth induced by co-culture with monocytes [1]: inhibited
number of tumor-associated monocytes/macrophages ([2]; day 20 after tumor inoculation): reduced
subcutaneous tumor growth ([2]; oral DSF in diet (0.8 mg DSF/1 g CE-2) from 4 days after inoculation): inhibited
cellular chemotaxis (THP-1 cells): inhibited
